# From patent publication US9289490B2, “Combinations and uses thereof” (MORPHOSYS AG, priority 2010, dated 2016)
# Values joined by “and” are separate entries in the source; they are usually repeats but may differ in a detail not shown here. Equal entries are not always repeated.
# Experiments:
# [1] = system: RAMOS cells; details: BOR 0.6 mg/kg i.p., MOR202 1 mg/kg i.v.
# Protocol: Fifty-five female SCID mice were pre-treated with Cyclophosphamide (75 mg/kg, i.p., twice daily) for two days prior to RAMOS cell inoculation (Day −5 and −4). On the day of inoculation (Day −3), all fifty-five mice were inoculated with 1×10^6 RAMOS cells each (in 100 μL) intravenously into the tail vein. Forty-eight of the mice were randomised by body weight into six groups of eight.
# The study continued for 98 days and the measured endpoint was survival.
# [2] = system: NCI-H929 MM cells; experiment: NCI-H929 bone lysis SCID mouse model, MOR202 and BOR (MicroCT); type: in vivo, SCID mice
# Text: 63 SCID mice were inoculated on Day (−7) intra-tibially with 2.5×10^6 NCI-H929 MM cells in order to induce bone lysis. Bortezomib (Groups A and AB) and Vehicle Control (Group C) treatments started on Day (−1). MOR202 treatments (Groups B and AB) started on Day 0. Treatment continued for 6 weeks.
# MicroCT Scan was used to assess bone lysis and included a 3-dimensional analysis comprising Total Bone Volume (TBV), Trabecular Bone Volume (Tb.BV), Trabecular Pattern Factor (Tb.Pf) and Structure Model Index (SMI). Table 10 above defines each of these parameters.
# [3] = system: LP-1 cells; experiment: ADCC with human PBMCs, flow cytometry (CalceinAM/PI); type: cell-based; details: LP-1 target cells treated with bortezomib before MOR202 15 μg/ml; FIG. 10
# Protocol: Using the methods described in Example 4, the ADCC effect of combining bortezomib and MOR202 was analyzed. Here, the target cells were treated with bortezomib prior to the treatment with MOR202. Both target cells. NCI-H929 and LP-1 cells were tested.
# [4] = system: RPMI-8226 cells; experiment: Cell proliferation, XTT-based assay; details: Homo sapiens, bortezomib alone, read-out: IC50 (inhibition of cell proliferation)
# Protocol: (§1) Increasing amounts of Bortezomib (Velcade®, Lot: No.: #9AZSY00) were applied to AMO-1, LP-1, NCI-H929 and RPMI-8226 cells and incubated for 24 h, 48 h and 72 h. After incubation, period plates were analyzed for cell proliferation in a quantitative colorimietric XTT-based assay using the cell proliferation kit II (ROCHE, Cell Proliferation Kit II, Cat. No.: 11465015001). For subsequent measurement, plates were subjected to Tecan Genios Reader and absorbance at 492 nm was detected.
# [5] = system: LP-1 cells; experiment: Cell proliferation, XTT-based assay; details: Homo sapiens, bortezomib alone, read-out: IC50 (inhibition of cell proliferation)
# Protocol: as §1
# [6] = system: NCI-H929 cells; experiment: Cell proliferation, XTT-based assay; details: Homo sapiens, NCI-H929, read-out: IC50 (inhibition of cell proliferation)
# Protocol: (§2) Cells were collected and distributed in 96-well plates with 5000 cells per well.
# (§3) After incubation, plates were analyzed for cell proliferation in a quantitative colorimietric XTT-based assay using the cell proliferation kit II (ROCHE, Cell Proliferation Kit II, Cat. No.: 11465015001). For subsequent measurement plates were subjected to Tecan Genios Reader and absorbance at 492 nm was detected.
# as §1
# [7] = system: NCI-H929 cells; experiment: ADCC with human PBMCs, flow cytometry (CalceinAM/PI); details: NCI-H929 target cells treated with bortezomib before MOR202 15 μg/ml; FIG. 9
# Protocol: PBMC's were isolated by density gradient centrifugation of freshly isolated human blood. Isolated blood from different donors were layered on a defined volume of Biocoll (Biochrome AG; CAT No.:L6115; LOT No.:1050T) in a Falcon tube and centrifuged at 380 g. The PBMCs were isolated and supplemented with RPMI medium.
# Cell suspensions were further incubated for 4 h at 37° C. To detect dead AMO-1 cells, cell suspensions were challenged with propidium iodide (PI) and subsequently analyzed in flow cytometry. Target cells were separated via gating of CalceinAM positive cell populations, and cells killed via ADCC were quantified.
# Single and combination doses of 5 μM LEN and 15 μg/ml of MOR03207 and 0.2 or 0.07 μg/ml MOR202 were used.
# Single and combination doses of 5 μM LEN and 15 μg/ml of MOR03207 and 0.2* or 0.07 μg/m MOR202 were used.
# [8] = system: AMO-1 cells; experiment: Cell proliferation, XTT-based assay; parameters: species or system human; details: Homo sapiens, AMO1, bortezomib alone, XTT, read-out: IC50 (inhibition of cell proliferation)
# Protocol: as §2, §3, §1
# [9] = Bortezomib 0.6 mg/kg i.p. twice per week, MOR202 3 mg/kg i.p. three times per week, 6 weeks, lower = less bone lysis
# [10] = group average of 10 mice, Bortezomib 0.6 mg/kg i.p., MOR202 3 mg/kg i.p., 6 weeks
structure (smiles),measurement,setting,value
CC(C)C[C@H](NC(=O)[C@H](Cc1ccccc1)NC(=O)c1cnccn1)B(O)O [bortezomib],Number of mice alive at study termination (day 98),[1],0/8
same,Day of death (post-inoculation) Mean,[1]; study 98 days,19.1 days
same,Day of death (post-inoculation) Median,[1]; study 98 days,19 days
same,% ILS (based on median death day),[1]; vs vehicle control,−7%
same,"Structure Model Index (SMI), individual mouse",[2]; [9],2.443 and 2.374 and 2.156 and 2.262 and 2.700 and 2.981 and 3.007 and 2.553 and 2.337 and 2.273
same,"Trabecular Pattern Factor (Tb · Pf), individual mouse",[2]; [9],25.893 mm^−1 and 26.044 mm^−1 and 16.877 mm^−1 and 23.179 mm^−1 and 32.463 mm^−1 and 33.152 mm^−1 and 34.609 mm^−1 and 31.813 mm^−1 and 27.147 mm^−1 and 23.582 mm^−1
same,"Structure Model Index (SMI), Average",[2]; [10],2.509
same,"Trabecular Pattern Factor (Tb · Pf), Average",[2]; [10],27.476 mm^−1
same,Reduction of bone lysis compared to vehicle control,"[2]; non-inoculated tibia = 0%, vehicle = 100% bone lysis, MOR202 alone 12 mg/kg, BOR alone 0.6 mg/kg, combination 3 mg/kg MOR202 and 0.6 mg/kg BOR",40%
same,Enhancement of MOR202 ADCC activity by bortezomib (in words),[3],enhancement in MOR202 activity
same,IC50,[4],9 nM
same,IC50,[5],6.1 nM
same,IC50,[6],3.3 nM
same,Enhancement of MOR202 ADCC activity by bortezomib (in words),[7],enhancement in MOR202 activity
same,IC50,[8],3.9 nM
